Holding throughout (format): in vivo
One test deals with Abutilon theophrasti. As to the kind of experiment: greenhouse post-emergence herbicidal activity, ABUTH. The conditions noted are these: read-out: % activity (solo application); for activity at 2 g/ha: 2 gai/ha. Here is the method:
(§1) The following examples serve to illustrate the invention.
(§2) The culture containers used were plastic pots containing loamy sand with approximately 3.0% of humus as substrate. The seeds of the test plants were sown separately for each species.
(§3) For the post-emergence treatment, the test plants were grown to a plant height of from 3 to 15 cm, depending on the plant habit, and only then treated with the active compounds which had been suspended or emulsified in water. To this end, the test plants were either sown directly, and grown in the same containers, or they were first grown separately as seedlings and transplanted into the test containers a few days prior to treatment.
(§4) Depending on the species, the plants were kept at 10-25 °C and 20-35 °C, respectively. The test period extended over 2 to 4 weeks. During this time, the plants were tended and their response to the individual treatments was evaluated.
(§5) Evaluation was carried out using a scale from 0 to 100. 100 means no emergence of the plants, or complete destruction of at least the above-ground parts, and 0 means no damage or normal course of growth. A good herbicidal activity is given at values of at least 70, and very good herbicidal activity is given at values of at least 85.
(§6) The respective stated components A and B, and if appropriate, C were formulated as a 5% by weight strength emulsion concentrate and, with addition of the amount of solvent system, introduced into the spray liquor used for applying the active compound. In the examples, the solvent used was water.
(§7) In the examples below, using the method of S. R. Colby (1967) “Calculating synergistic and antagonistic responses of herbicide combinations”, Weeds 15, p. 22ff., the value E, which is expected if the activity of the individual active compounds is only additive, was calculated.
(§8) E=X+Y−(X·Y/100) • where • X=percent activity using active compound A at an application rate a; • Y=percent activity using active compound B at an application rate b; • E=expected activity (in %) by A+B at application rates a+b.
(§9) The plants used in the greenhouse experiments were of the following species
(§10) In this context, a.i. means active ingredient, based on 100% active ingredient.
(§11) As indicated the application was post emergent (POST) at the respective growth stage (GS) of the weed.
(§12) Assessment was at the indicated days after treatment (DAT).

In the next test the test system is Avena fatua. As to the kind of experiment: greenhouse post-emergence herbicidal activity, AVEFA. Particulars: read-out: % activity (solo application); for activity at 2 g/ha / activity at 4 g/ha: 168 h, GS 12-16, 7 DAT; for activity at 2 g/ha: 2 gai/ha; for activity at 4 g/ha: 4 gai/ha; for activity at 0.5 g/ha: 0.5 gai/ha. Here is the method: as §1, §2, §3, §4, §5, §6, §7, §8, §9, §10, §11, §12

Another test deals with Setaria faberi. As to the kind of experiment: greenhouse post-emergence herbicidal activity, SETFA. Particulars: Setaria faberi, post-emergence, read-out: % activity (solo application); for activity at 2 g/ha: 2 gai/ha; for activity at 4 g/ha: 4 gai/ha; for activity at […]: 0.25 gai/ha; for activity at 0.5 g/ha: 0.5 gai/ha. Here is the method:
as §1, §2, §3, §4, §5, §6, §7, §8, §9, §10, §11, §12

The subject of the next test is Amaranthus tamariscinus. As to the kind of experiment: greenhouse post-emergence herbicidal activity, AMATA. The conditions noted are these: 0.25 gai/ha, read-out: % activity (solo application). Here is the method: as §1, §2, §3, §4, §5, §6, §7, §8, §9, §10, §11, §12
The test system of a further test is Digitaria sanguinales. As to the kind of experiment: greenhouse post-emergence herbicidal activity, DIGSA. Particulars: for activity at […]: 0.25 gai/ha. Here is the method:
as §1, §2, §3, §4, §5, §6, §7, §8, §9, §10, §11, §12

The test system of the next test is Eleusine indica. As to the kind of experiment: greenhouse post-emergence herbicidal activity, ELEIN. The conditions noted are these: 480 h, GS 12-16, 20 DAT, 0.25 gai/ha, read-out: % activity (solo application). Here is the method: as §1, §2, §3, §4, §5, §6, §7, §8, §9, §10, §11, §12
The next test concerns Kochia scoparia. As to the kind of experiment: greenhouse post-emergence herbicidal activity, KCHSC. The conditions noted are these: for % activity: solo application, KCHSC. Here is the method:
as §1, §2, §3, §4, §5, §6, §7, §8, §9, §10, §11, §12

The next test relates to Setaria viridis. As to the kind of experiment: greenhouse post-emergence herbicidal activity, SETVI. Particulars: for activity at 1 g/ha: 1 gai/ha; for % activity: solo application, SETVI, GS 11-33, 8 DAT, use rate 0.8 gai/ha. Here is the method: as §1, §2, §3, §4, §5, §6, §7, §8, §9, §10, §11, §12
A further test has as its system Commenline benghalensis. As to the kind of experiment: greenhouse post-emergence herbicidal activity, COMBE. Particulars: read-out: % activity (solo application); for activity at 0.5 g/ha: 0.5 gai/ha. Here is the method: as §1, §2, §3, §4, §5, §6, §7, §8, §9, §10, §11, §12
In a further test the test system is Echinocloa crus-galli. As to the kind of experiment: greenhouse post-emergence herbicidal activity, ECHCG. Particulars: for % activity: solo application, ECHCG, GS 11-33, 20 DAT. Here is the method:
as §1, §2, §3, §4, §5, §6, §7, §8, §9, §10, §11, §12

Another test deals with Brachiaria decumbens. As to the kind of experiment: greenhouse post-emergence herbicidal activity, BRADC. Particulars: solo application, BRADC, GS 11-33, 20 DAT, use rate 1.6 gai/ha. Here is the method: as §1, §2, §3, §4, §5, §6, §7, §8, §9, §10, §11, §12
A further test concerns Lolium multiflorum. As to the kind of experiment: greenhouse post-emergence herbicidal activity, LOLMU. Particulars: solo application, LOLMU, GS 11-33, 7 DAT, use rate 1.6 gai/ha. Here is the method: as §1, §2, §3, §4, §5, §6, §7, §8, §9, §10, §11, §12
For the next test, the system named is Sorghum halepense. As to the kind of experiment: greenhouse post-emergence herbicidal activity, SORHA. The conditions noted are these: solo application, SORHA, GS 11-33, 20 DAT, use rate 1.6 gai/ha. Here is the method: as §1, §2, §3, §4, §5, §6, §7, §8, §9, §10, §11, §12
Where [1] appears, read: Digitaria, post-emergence, 480 h, GS 12-16, 20 DAT, read-out: % activity (solo application).
Where [2] appears, read: 480 h, GS 12-16, 20 DAT, 1 gai/ha.

Read-outs that look alike come from different tables or passages of the source.

Consider `C=C[C@]1(C(=O)N[C@@H]2CO[C@H](C(=O)OC)C2)CC(c2cc(F)cc(F)c2)=NO1` [(II.1.cis.A), methyl (2S,4S)-4-[[(5S)-3-(3,5-difluorophenyl)-5-vinyl-4H-isoxazole-5-carbonyl]amino]tetrahydrofuran-2-carboxylate], for which the activity at 2 g/ha with Abutilon theophrasti (168 h, GS 12-16, 7 DAT) is 15%; in the test on Abutilon theophrasti (504 h, GS 12-16, 21 DAT), 0%; in the test on Avena fatua, 20%; in the test with Setaria faberi (168 h, GS 12-16, 7 DAT), 70%; in the test on Setaria faberi (504 h, GS 12-16, 21 DAT), 75%. For the same compound, the activity at 4 g/ha was determined as 25% in the test with Avena fatua; 70% with Setaria faberi (168 h, GS 12-16, 7 DAT); 85% in the test with Setaria faberi (504 h, GS 12-16, 21 DAT).

For the compound `C=C[C@]1(C(=O)N[C@H]2CO[C@@H](C(=O)OC)C2)CC(c2cc(F)cc(F)c2)=NO1` [(II.1.cis.B), methyl (2R,4R)-4-[[(5S)-3-(3,5-difluorophenyl)-5-vinyl-4H-isoxazole-5-carbonyl]amino]tetrahydrofuran-2-carboxylate], the activity at 0.5 g/ha was found to be 0% in the test on Abutilon theophrasti (144 h, GS 12-16, 6 DAT, 0.5 gai/ha); 50% in the test on Digitaria sanguinales (Digitaria, post-emergence, 480 h, GS 12-16, 20 DAT, 0.5 gai/ha, read-out: % activity (solo application)); 15% with Kochia scoparia (Bassia scoparia, post-emergence, 480 h, GS 12-16, 20 DAT, 0.5 gai/ha, read-out: % activity (solo application)); 55% in the test on Setaria faberi (144 h, GS 12-16, 6 DAT); 25% in the test on Setaria faberi (480 h, GS 12-16, 20 DAT); 50% with Setaria viridis (Setaria viridis, post-emergence, 480 h, GS 12-16, 20 DAT, 0.5 gai/ha, read-out: % activity (solo application)). Besides, the activity at […] in the test on Amaranthus tamariscinus (144 h, GS 12-16, 6 DAT) was 15%; in the test on Digitaria sanguinales (setting [1]), 20%; in the test with Eleusine indica, 20%; in the test on Setaria faberi (144 h, GS 12-16, 6 DAT), 35%; in the test on Setaria faberi (480 h, GS 12-16, 20 DAT), 20%. The activity at 2 g/ha in the test with Avena fatua is 10%. Further, the activity at 4 g/ha in the test on Avena fatua is 20%.

`C=C[C@]1(C(=O)N[C@H]2C=C[C@@H](C(=O)OC)C2)CC(c2cc(F)cc(F)c2)=NO1` [(II.5.cis.B), methyl (1S,4R)-4-[[(5S)-3-(3,5-difluorophenyl)-5-vinyl-4H-isoxazole-5-carbonyl]amino]cyclopent-2-ene-1-carboxylate]: the activity at […] in the test on Amaranthus tamariscinus (144 h, GS 12-16, 6 DAT) amounted to 45%; in the test on Amaranthus tamariscinus (480 h, GS 12-16, 20 DAT), 40%; in the test on Commenline benghalensis (144 h, GS 12-16, 6 DAT, 0.25 gai/ha) it was 40%; in the test on Digitaria sanguinales (setting [1]), 35%; with Echinocloa crus-galli (Echinochloa crus-galli, post-emergence, 144 h, GS 12-16, 6 DAT, 0.25 gai/ha, read-out: % activity (solo application)), 15%; in the test with Setaria faberi (144 h, GS 12-16, 6 DAT) it was 40%. Moreover, the activity at […] in the test with Setaria faberi (480 h, GS 12-16, 20 DAT) was 30%. Moreover, in the test with Avena fatua, the activity at 2 g/ha stood at 40%. Moreover, the activity at 0.5 g/ha in the test with Commenline benghalensis (144 h, GS 12-16, 6 DAT) was 55%; with Commenline benghalensis (480 h, GS 12-16, 20 DAT), 70%.

Turning to `C[C@]1(C(=O)N[C@H]2C=C[C@@H](C(=O)O)C2)CC(c2cc(F)cc(F)c2)=NO1` [(II.8.cis.B), (1S,4R)-4-[[(5R)-3-(3,5-difluorophenyl)-5-methyl-4H-isoxazole-5-carbonyl]amino]cyclopent-2-ene-1-carboxylic acid], the activity at 0.5 g/ha came to 20% in the test on Avena fatua (144 h, GS 12-16, 6 DAT); 15% in the test with Avena fatua (480 h, GS 12-16, 20 DAT); 15% in the test on Commenline benghalensis (144 h, GS 12-16, 6 DAT); 20% in the test with Setaria faberi (144 h, GS 12-16, 6 DAT); 30% in the test on Setaria faberi (480 h, GS 12-16, 20 DAT). In the test on Avena fatua, the activity at 2 g/ha is 30%. The activity at 4 g/ha in the test with Avena fatua was determined as 30%. For the same compound, the activity at 1 g/ha in the test with Avena fatua (setting [2]) is 65%; with Commenline benghalensis (144 h, GS 12-16, 6 DAT, 1 gai/ha), 40%; with Echinocloa crus-galli (Echinochloa crus-galli, post-emergence, 144 h, GS 12-16, 6 DAT, 1 gai/ha, read-out: % activity (solo application)), 70%; with Kochia scoparia (Bassia scoparia, post-emergence, 480 h, GS 12-16, 20 DAT, 1 gai/ha, read-out: % activity (solo application)) it was 20%; in the test on Setaria faberi (setting [2]), 50%; in the test on Setaria viridis (Setaria viridis, post-emergence, 144 h, GS 12-16, 6 DAT, read-out: % activity (solo application)), 10%. In the test with Setaria viridis (Setaria viridis, post-emergence, 480 h, GS 12-16, 20 DAT, read-out: % activity (solo application)), the activity at 1 g/ha was 20%.

As to `CCOC(=O)COc1ncccc1Oc1nc(-n2c(=O)cc(C(F)(F)F)n(C)c2=O)c(F)cc1Cl` [I.6], the “% activity” value is 40% in the test with Brachiaria decumbens; 50% in the test with Digitaria sanguinales (solo application, DIGSA, GS 11-33, 20 DAT, use rate 1.6 gai/ha); 45% in the test with Echinocloa crus-galli (use rate 1.6 gai/ha); 55% in the test with Kochia scoparia (GS 11-33, 20 DAT, use rate 0.8 gai/ha); 15% with Lolium multiflorum; 30% in the test on Setaria viridis. Further, the “% activity” value with Sorghum halepense is reported as 10%.

`CCOC(=O)COc1ncccc1Oc1nc(-n2c(=O)cc(C(F)(F)F)n(C)c2=O)c(F)cc1Br` [I.9]: the “% activity” value with Echinocloa crus-galli (use rate 0.4 gai/ha) was 40%; in the test on Kochia scoparia (GS 11-33, 7 DAT, use rate 0.4 gai/ha), 60%; with Setaria viridis, 75%.

The values are drawn from US20260363244A1, “HERBICIDAL COMPOSITIONS COMPRISING URACILS” (BASF SE, priority 2022, published 2026).
